Source: patent publication US10130618B2, “Pharmaceutical combinations of dabigatran and proton pump inhibitors” (SANOVEL ILAC SANAYI VE TICARET ANONIM SIRKETI, priority 2014, dated 2018)

Assays:
[1] = DSC analysis of 1:1 API mixtures (compatibility with Dabigatran etexilate mesylate); format: physicochemical; settings: for DSC peak temperature of the mixture (peak shifting) / Compatibility by DSC: 1:1 mixture with Dabigatran etexilate mesylate; for DSC peak temperature of the mixture (peak shifting): 10° C./min, 30° C. to 300° C.; for Compatibility by DSC: characteristic peaks not determined; for Pharmaceutical incompatibility (discussion of DSC): with Dabigatran etexilate mesylate
Experimental: (§1) DSC Analysis: DSC scan of about 2 mg using an automatic thermal analyzer system performed accurately weighed of APIs (Dabigatran etexilate, Dabigatran etexilate mesylate, Esomeprazole, Dexlansoprazole) of 1:1 in ratio respectively. DSC scans performed with 10° C. per minute heat flow from 30° C. to 300° C. The peak shifting of active ingredients was determined by DSC analysis.
(§2) Method Log: • 1: Pan Type: Aluminum hermetic • 2: Equilibrate at 30.00° C. • 3: Ramp 10.00 ° C./min to 300.00° C. • 4: End of method
(§3) Results (Thermograms): • FIG. 1. Thermogram of Dabigatran etexilate • FIG. 2. Thermogram of Dabigatran etexilate mesylate • FIG. 3. Thermogram of Esomeprazole • FIG. 4. Thermogram of Dexlansoprazole • FIG. 5. Thermogram of Dabigatran etexilate: Esomeprazole • FIG. 6. Thermogram of Dabigatran etexilate mesylate: Esomeprazole • FIG. 7. Thermogram of Dabigatran etexilate: Dexlansoprazole • FIG. 8. Thermogram of Dabigatran etexilate mesylate: Dexlansoprazole
(§4) Discussion: The characteristic degradation and melting peaks of active ingredients were not determined. It indicates pharmaceutical incompatibility of esomeprazole and dexlansoprazole with Dabigatran etexilate and Dabigatran etexilate mesylate.

[2] = DSC analysis of 1:1 API mixtures (compatibility with Dabigatran etexilate); format: physicochemical; settings: for DSC peak temperature of the mixture (peak shifting) / Compatibility by DSC: 1:1 mixture with Dabigatran etexilate; for DSC peak temperature of the mixture (peak shifting): 10° C./min, 30° C. to 300° C.; for Compatibility by DSC: characteristic peaks not determined; for Pharmaceutical incompatibility (discussion of DSC): with Dabigatran etexilate
Experimental: as §1, §2, §3, §4

Cc1c(OCC(F)(F)F)ccnc1C[S@@+]([O-])c1nc2ccccc2[nH]1 [Dexlansoprazole, (+)-2-[(R)-{[3-methyl-4-(2,2,2-trifluoroethoxy)pyridin-2-yl]methyl}sulfinyl]-1H-benzimidazole]
DSC peak temperature of the mixture (peak shifting) [1]: 82 °C
Compatibility by DSC [1]: incompatible.
Pharmaceutical incompatibility (discussion of DSC) [1]: incompatibility
DSC peak temperature of the mixture (peak shifting) [2]: 87 °C
Compatibility by DSC [2]: incompatible.
Pharmaceutical incompatibility (discussion of DSC) [2]: incompatibility

COc1ccc2nc([S@@+]([O-])Cc3ncc(C)c(OC)c3C)[nH]c2c1 [Esomeprazole, (S)-5-methoxy-2-[(4-methoxy-3,5-dimethylpyridin-2-yl)methylsulfinyl]-3H-benzoimidazole]
DSC peak temperature of the mixture (peak shifting) [1]: 176 °C
Compatibility by DSC [1]: incompatible.
Pharmaceutical incompatibility (discussion of DSC) [1]: incompatibility
DSC peak temperature of the mixture (peak shifting) [2]: 174 °C
Compatibility by DSC [2]: incompatible.
Pharmaceutical incompatibility (discussion of DSC) [2]: incompatibility
